From patent US11692194B2, “Modulating expression of polypeptides via new gene switch expression systems” (Precigen, Inc., priority 2017, dated 2023)

Experiments:
[1] = test system: CD19-specific CAR-T cells co-expressing RTS-mbIL-15; test: Survival of CD19 CAR/RTS-mbIL-15 T cells upon withdrawal of IL-2 and IL-21; format: cell-based, human; settings: veledimex 50 nM, ex vivo culture, % live cells by flow
Procedure: Multiple Sleeping Beauty transposon DNA plasmids encoding for RTS-membrane bound IL-15 (RTS-mbIL-15), CD19-specific chimeric antigen receptor (CD19 CAR) (Design 9, FIG. 2) were transfected into peripheral blood mononuclear cells (PBMC) along with plasmid DNA encoding for Sleeping Beauty transposase SB11 via nucleofection (FIG. 1). On day 0, 20 million PBMC were resuspended in 100 μL of Amaxa Human T cell Nucleofector solution (Cat. no. VPA-1002; Lonza, Basel, Switzerland) mixed with a total of 15 μg of transposons and 5 μg of transposase and nucleofected into cells. The following day (day1) cells were counted, and CAR expression was measured using flow cytometry. Cells were stimulated with either γ-irradiated (100 Gy) or mitomycin C treated K562 based AaPCs expressing CD19 on their surface at a 1:1 ratio. Cultures were supplemented with IL-21 (30 ng/ml) only for the first round of stimulation and subsequently with recombinant human IL-2 (50 IU/ml) and IL-21 (30 ng/ml) (Pepro Tech) for remaining stimulations. […] Cultures were also closely monitored for the outgrowth of NK cells (defined as CD3negCD56+ population) and were removed from the CAR T cell cultures when the percentage exceeded 10% of total cell populations using magnetic beads for CD56 (Stem Cell Technologies and/or Miltenyi Biotec), according to the manufacturer's instructions. […]

[2] = test system: RTS-mbIL-15 in CD19 CAR T cells; test: Western blot of mbIL-15 expression; format: cell-based, human; settings: CD19 CAR+RTS-mbIL-15 cells, veledimex 2-3 days after four rounds of stimulation
Procedure: PBMC were nucleofected with plasmids of Sleeping Beauty system to express CD19-specific CAR under constitutive promoter (CD19 CAR alone), or CD19-specific CAR and mbIL-15 both under constitutive promoters (CD19 CAR+constitutive-mbIL-15) or CD19-specific CAR under constitutive promoter and RTS-mbIL-15 (CD19 CAR+RTS-mbIL-15). Nucleofected cells were cultured in presence of AaPC as described in Example 1.
After four rounds of stimulations, cells were cultured in absence (CD19 CAR alone, CD19 CAR+constitutive-mbIL-15 and CD19 CAR+RTS-mbIL-15) or presence (CD19 CAR+RTS-mbIL-15) of veledimex for 2-3 days. Cell lysates were prepared for western blot analysis. Approximately 10 μg lysate/lane of NuPAGE 10% Bis-Tris gel was loaded. Proteins were transferred from gel to a polyvinylidene fluoride (PVDF) membranes using the iBlot® (Life Technologies) semi-dry transfer apparatus. Membrane was blocked using a 5% (w/v) powdered milk solution in a PBS+Tween-20 (PBST; 1×PBS+0.05% Tween-20) solution stained with goat anti-human IL-15 (R&D Systems) primary antibody and rabbit anti-goat IgG HRP (KPL Laboratories) secondary antibody. […]
Image of the western blot were captured on the FluorChem™ E Imager (ProteinSimple, San Jose, Calif.) system using the Digital Darkroom software and AlphaView® software (ProteinSimple). […] In CD19 CAR+constitutive-mbIL-15 positive control, expression of mbIL-15 was detected.

[3] = test system: RTS-IL-12 in EGFRvIII-CAR T cells; test: Veledimex dose-response of IL-12, ELISA; format: cell-based
Procedure: EGFRvIII-CAR T cells with or without RTS-IL-12 were expanded ex vi by three successive rounds of stimulation with EGFRvIII^+ AaPCs. T cells were then treated with varying doses of veledimex from 0 nM (DMSO control) to 100 nM. At 48 h post veledimex treatment, culture supernatants were harvested analyzed for IL-12 levels by ELISA. EGFRvIII-CAR expression in all groups was confirmed with flow cytometry and was stable with increasing doses of veledimex (data not shown) as expected with CAR expression under control of a constitutive promoter.

[4] = test system: RTS:mbIL15 in CAR T cells; test: Serine recombinase (SF370) integrated single vector CAR:HER1t+RTS:mbIL15, flow cytometry of mbIL15; format: cell-based
Procedure: Various DNA plasmids containing serine recombinase attachment sites and components of the gene switch system as depicted in FIG. 17 were transfected to peripheral blood mononuclear cells (PBMC) via nucleofection to redirect T cell specificity. Specifically, 3 single vectors were tested in the presence and absence of a serine recombinase, SF370:
(i) CAR:HER1t+constitutive mbIL15 (positive control)
(ii) CAR:HER1t+promoterless mbIL15 (negative control)
(iii) CAR:HER1t+RTS:mbIL15
The expression of the CAR and mbIL15 was evaluated weekly (at days 1, day 8, day 15 and day 22). Aliquots of cells were treated with either DMSO or veledimex 24-48 h prior to each flow to assess inducible mbIL15 expression. AaPC Clone 1 was added weekly at a 1:1 ratio with CAR+ cells.

Compound: CCC[C@@H](N(NC(=O)c1cccc(OC)c1CC)C(=O)c1cc(C)cc(C)c1)C(C)(C)C [veledimex, N-[(1R)-1-(1,1-dimethylethyl)butyl]-N′-(2-ethyl-3-methoxybenzoyl)-3,5-dimethylbenzohydrazide]
- survival of CAR-T cells in absence of cytokines (IL-2 and IL-21) [1]: improved survival of CAR-T cells
- mbIL-15 expression by western blot [2]: strong expression of mbIL-15
- IL-12 production versus veledimex dose ([3]; 0 nM to 100 nM, 48 h post treatment): dose dependent
- EGFRvIII-CAR expression with increasing doses of veledimex ([3]; flow cytometry, data not shown): stable
- mbIL15 expression after removal of veledimex ([4]; day 22): complete loss of mbIL15 expression
- mbIL-15 expression on veledimex treatment ([4]; two weeks post-transfection, ~48 h treatment): induction of mbIL-15 expression
